Measured values reported in BindingDB's records for doi:10.1021/acschembio.6b00609 (University of Manchester, 2016).

Target: Poly(ADP-ribose) glycohydrolase (Homo sapiens, UniProt Q86W56)
Experiment: PARG Biochemical Assay
Conditions: pH 7.4
Protocol: Briefly, PARG in vitro assays were conducted in a total volume of 15 μL in a standard 384-well format. A total of 5 μL of human full length PARG (AstraZeneca), used at a final reaction concentration of 65 pM, was added to 5 μL of Bt-NAD ribosylated PARP1 substrate (AstraZeneca) at a final reaction concentration of 4.8 nM in assay buffer (50 mM Tris pH 7.4, 0.1 mg mL−1 BSA, 3 mM EDTA, 0.4 mM EGTA, 1 mM DTT, 0.01% Tween 20, 50 mM KCl). The reaction was incubated at RT for 10 min, and then 5 μL of detection reagent was added. Detection reagent consists of 42 nM mAb anti-6HIS XL665 (CisBio: 61HISXLB) and2.25 nM streptavidin europium cryptate (CisBio: 610SAKLB), both at 3× working stock concentrations (final concentrations of 14 nM and 0.75 nM, respectively), in detection buffer (50 mM Tris pH 7.4, 0.1 mg mL−1 BSA and 100 mM KF). Following incubation at RT for 60 min in the dark, TR-FRET signal was measured at λEx 340 nm and λEm 665 nm and λEm

Chain of Poly(ADP-ribose) glycohydrolase (Q86W56 whole entry): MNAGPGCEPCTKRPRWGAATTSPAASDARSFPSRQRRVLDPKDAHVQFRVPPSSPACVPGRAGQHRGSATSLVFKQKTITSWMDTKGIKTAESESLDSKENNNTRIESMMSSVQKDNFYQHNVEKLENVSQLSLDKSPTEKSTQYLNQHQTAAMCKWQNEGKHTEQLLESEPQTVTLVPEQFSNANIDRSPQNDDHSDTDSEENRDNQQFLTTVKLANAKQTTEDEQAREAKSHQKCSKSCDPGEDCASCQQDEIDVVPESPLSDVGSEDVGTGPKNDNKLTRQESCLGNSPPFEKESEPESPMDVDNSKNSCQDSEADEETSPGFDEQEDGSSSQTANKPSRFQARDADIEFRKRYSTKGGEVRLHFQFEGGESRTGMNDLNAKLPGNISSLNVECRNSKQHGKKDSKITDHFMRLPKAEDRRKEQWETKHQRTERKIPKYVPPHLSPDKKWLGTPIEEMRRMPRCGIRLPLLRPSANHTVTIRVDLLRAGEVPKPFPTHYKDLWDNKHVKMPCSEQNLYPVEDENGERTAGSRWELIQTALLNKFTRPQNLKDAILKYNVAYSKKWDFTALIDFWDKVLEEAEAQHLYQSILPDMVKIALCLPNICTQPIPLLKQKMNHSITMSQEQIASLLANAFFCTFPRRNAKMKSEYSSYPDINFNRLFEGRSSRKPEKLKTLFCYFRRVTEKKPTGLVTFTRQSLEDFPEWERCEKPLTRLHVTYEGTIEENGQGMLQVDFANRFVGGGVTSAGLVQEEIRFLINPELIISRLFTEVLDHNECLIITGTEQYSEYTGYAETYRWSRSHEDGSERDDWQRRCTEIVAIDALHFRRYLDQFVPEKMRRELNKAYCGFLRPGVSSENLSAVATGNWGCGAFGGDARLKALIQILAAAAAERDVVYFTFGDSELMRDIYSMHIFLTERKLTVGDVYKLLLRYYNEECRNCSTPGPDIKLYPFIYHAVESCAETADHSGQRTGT

IC50 [nM]	Structure (SMILES)
> 60000	CC(C)(C)NS(=O)(=O)c1ccc2c(c1)C(=O)c1ccccc1C2=O [PDD00013907 (1)]
26	Cc1cc(Cn2c(=O)n(Cc3cnc(C)s3)c(=O)c3cc(S(=O)(=O)NC4(C)CC4)ccc32)n(C)n1 [PDD00017273 (4)]
> 60000	Cc1nc(C)c(Cn2c(=O)n(-c3ncns3)c3cc(S(=O)(=O)N(C)C4(C)CC4)ccc32)s1 [PDD00031705 (7)]
> 60000	Cc1cc(Cn2c(=O)n(Cc3cnc(C)s3)c(=O)c3cc(S(=O)(=O)N(C)C4(C)CC4)ccc32)n(C)n1 [PDD00031704 (6)]
40	Cc1nc(C)c(Cn2c(=O)n(-c3ncns3)c3cc(S(=O)(=O)NC4(C)CC4)ccc32)s1 [PDD00017238 (5)]
